The values that follow come from patent publication US7662941B2, “Embryonic stem cell self maintenance and renewal reporter” (The Trustees of the University of Princeton - Princeton …, priority 2005, dated 2010).

Read-outs that look alike come from different tables or passages of the source.

Common to all, as to type: cell-based, mouse
The subject of series [1] is Nanog/GFP expression in NeFREC(g). Briefly: Chemical genomics screen in NeFREC(g), ES medium without LIF, Nanog/GFP by flow cytometry. The following applies: for Effect on RA-induced Nanog/GFP downregulation: agent plus RA compared to RA-induced differentiation condition; for Effect on Nanog/GFP expression / ES cell differentiation induced by omission of LIF: compound alone in ES medium without LIF, one and two days. Here is the method: To validate the use of NeFRECs as an easy reporter cell in chemical genomics proof-of-principle studies were performed with several compounds that are known to show effects on ES cell self-renewal and differentiation or were previously tested in early embryonic development and cancer therapy. The compounds included in the experiment were RA (Sigma, Cat# R2625), Trichostatin A (TSA, Sigma, Cat# T8552, a histone deacetylase (HDAC) inhibitor), Ly294002, (CALBIOCHEM, Cat# 440202, a phosphatidylinositol 3-kinase (PI3K) inhibitor), Rapamycin (Rapa, Sigma, Cat# R0395, an inhibitor of mTOR), PD98059 (CALBIOCHEM, Cat# 513000, a MAP kinase (MAPK) inhibitor), 5-aza-2′-deoxycytidine (AZA, Sigma, Cat# A3656, an inhibitor of DNA methytransferases).
(§1) For the chemical genomics screen 2.5×10^4 cells in 0.5 ml ES medium were plated per 24-well the day before treatment. Medium without LIF supplemented with the different compounds at indicated concentrations was added 24 hrs post-plating. Medium was changed daily. Nanog/GFP levels for each sample were measured by flow cytometry one and two days post drug treatment. Average percentages of Nanog/GFP^+ cells were calculated from duplicate samples (FIG. 10A).
On the technique in general: A flow cytometer gives signals particle by particle.

For series [2], the system named is ES cells.
For series [3], the system named is Nanog/GFP expression in NeFREC(g). Briefly: Nanog/GFP expression of NeFREC(g) clones in response to RA, flow cytometry. The protocol: ES cell growth and differentiation. ES cells were maintained on gelatin-coated tissue culture plates in Dulbecco's Modified Eagels Medium (DMEM; Invitrogen/Gibco) supplemented with 15% fetal calf serum (FCS), 1 mM sodium pyruvate, 2 mM L-glutamine (Invitrogen/Gibco), 0.1 mM non-essential amino acids (Invitrogen/Gibco), 100 U/ml penicillin, 100 μg/ml streptomycin, 1×10^−4 M 2-Mercaptoethanol (2-ME) and 1000 U/ml leukemia inhibitory factor (LIF; ESGROW, Chemicon), henceforth referred to as ES medium. Medium was changed every day and cells were split every second day.
One day prior to differentiation cells were plated on gelatinized culture dishes in the aforementioned medium. Differentiation was induced either by removal of LIF or removal of LIF and addition of retinoic acid (RA, Sigma) if grown in ES medium or either LIF or Bmp4 or both if grown in SF-ES medium.
Cell surface staining, FACS analysis and Cell Sorting. Standard conditions were used to stain the cells. Cell suspensions were analyzed on a FACS Sort (Becton Dickinson). Cell sorting was performed using a FacsVantage with DiVa Software (Becton Dickinson).
NeFREC(g) clones. To determine the dynamics of Nanog/GFP expression of NeFREC(g) clones in response to RA, 4 individual clones (numbers 4, 9, 20 and 23) were analyzed in detail (FIG. 6a upper panel). 2.5×10^4 cells were plated in 0.5 ml ES medium the day before RA treatment. ES medium without LIF and supplemented with 10 μM RA (10 mM stock dissolved in 100% ethanol) was added to cells 24 hours post-plating (indicated as day 0). Nanog/GFP levels in treated cells were measured daily, day 0 to day 3, by flow cytometry. […] By day 3, less than 5% cells remain Nanog/GFP+ in response to RA treatment. […] Eef1b gene expression was used as loading control (5′-[…]-3′ (SEQ ID NO:17) and 5′-[…]-3′ (SEQ ID NO:18)).
To further determine the dynamics of Nanog/GFP expression of NeFREC(g), a RA dosage response experiment, ranging from 0.2 to 10 μM RA, was performed (FIG. 6B). An RA dosage of 0.2 μM is sufficient to induces a rapid and significant downregulation of Nanog/GFP expression in NeFREC(g). Omitting LIF from the ES medium also induces loss of Nanog/GFP expression in these cells at a slower rate compared to RA treatment. Forty percent of the cells still remain Nanog/GFP^+ by day 3. A RA pulse experiment was performed to determine the time required to initiate Nanog/GFP downregulation (i.e. differentiation) in response to 1 μM of RA (FIG. 6C). 2.5×10^4 cells were plated initially in 0.5 ml media per well in a 24-well plate the day before treatment. Cells were pulsed with 1 μM RA in ES medium without LIF for the indicated time periods and then changed to fresh ES medium. Nanog/GFP expression was measured after one day and two days of RA treatment.

Series [4] has the same test system. Briefly: Combinatorial RA and TSA treatment of NeFREC(g), Nanog/GFP by flow cytometry. Here is the method: In brief, 2.5×10^4 cells were plated in 0.5 ml ES medium. The HDAC inhibitor TSA was added at various concentrations 24 hours post-plating. One day after TSA treatment, medium was changed to ES medium without LIF plus 1.0 μM RA (indicated as day 0). Medium was changed and Nanog/GFP expression monitored by flow cytometry on a daily basis. […] 75 nM TSA rescued Nanog/GFP levels by more than 50% by day 2.

In series [5] the test system is NeFREC(g). Put plainly: Cell morphology of NeFREC(g) after compound treatment. The following applies: day 2 of treatment. Here is the method: Microscopy. Microscopy was performed on a Nikon Eclipse TE2000-U microscope with appropriate filter sets, CoolSnapES (black and white/fluorescence) and DXM1200F (color) cameras, and MetaView (black and white/fluorescence) and ACT (color) image-processing software.
as §1
Addition of RA, LY294002 or PD98059 to the cultures has different effects on ES cell colony morphology.

The subject of series [6] is Nanog/GFP expression in NeFREC(g). Put plainly: Transient RNA shRNA transfection of NeFREC(g), Nanog/GFP by flow cytometry. The following applies: for Nanog/GFP expression (NeFREC(g) bearing Nanog/GFP): by three days, from 90.9%. The protocol:
(§2) RNA shRNA Transfection. For transfection of RNA shRNA, cells were harvested, washed with DMEM and resuspended at 2×10^5/ml in medium without penicillin and streptomycin. 250 μl of medium without penicillin and streptomycin was added per gelatin pre-coated well of a 24-well culture plate. In order to prepare the RNA shRNA transfection mixture per well, 10-20 μl of RNA shRNA [1 pmole/μl] was mixed with OptiMEM (Invitrogen/Gibco) in a final volume of 50 μl. In a separate tube, 1 μl Lipofectamine2000 (Invitrogen) was added to 49 μl of OptiMEM per sample. The RNA shRNA/OptiMEM and Lipofectamine/OptiMEM solutions were combined, mixed, incubated for 20 min at room temperature and added to the well. Then, 250 μl of cell solution, i.e., 5×10^4 cells/well, were added and the 24-well plate incubated in a humidified chamber in 5% CO2/air mixture at 37° C. Twenty-four hours after transfection, medium was replaced with appropriate medium with penicillin and streptomycin.
RNA shRNA against GFP (5′-[…] UAGACGUUGUGGCUGU-3′; SEQ ID NO:31) was transfected into NeFREC(g) as described in Example 1. Ten pmole of RNA shRNA against GFP reduced Nanog/GFP reporter expression in NeFREC(g) from 85.8% down to 18% 72 hours post-transfection (FIG. 11A). The reduction in Nanog/GFP fluorescence is RNA shRNA concentration-dependent.
The transcription factor Pou5f1 is required for ES cell maintenance and when reduced by more than 50% of wild-type levels results in differentiation towards trophectodermal cells (Niwa et al., 2000 Nat. Genet. 24:372-376). Therefore, 10 pmole of RNA shRNA against Pou5f1 (5′-[…] UAAGGCUGAGCUGCAA-3′; SEQ ID NO:32) was transfected into NeFREC(g).

Series [7] relates to Nanog/GFP expression in NeFREC(g)-SF. Briefly: Transient RNA shRNA transfection of NeFREC(g)-SF, Nanog/GFP by flow cytometry. The following applies: NeFREC(g)-SF in SF-ES medium, by day 2; from 94.8%. The protocol: Alternatively, ES cells were maintained on gelatin-coated tissue culture plates in a 1:1 mixture of Neurobasal with N2-supplement (Invitrogen/Gibco) and DMEM/F12 with B27 (Invitrogen/Gibco) supplemented with 10% fraction V bovine serum albumin (BSA; Sigma) and 100 U/ml penicillin, 100 μg/ml streptomycin, 1×10^−4 M 2-ME), 1000 U/ml LIF and 10 ng/ml bone morphogenic protein (Bmp) 4 (R&D Systems), henceforth referred to as SF-ES medium. Medium was changed every day and cells split every second day.
as §2, with “Twenty-four hours after transfection, medium was replaced with appropriate medium with penicillin and streptomycin.” left out

Turning to `Nc1ncn([C@H]2C[C@H](O)[C@@H](CO)O2)c(=O)n1` [AZA, 5-aza-2′-deoxycytidine], in series [1], the “Effect on RA-induced Nanog/GFP downregulation” value is “delay RA-induced Nanog/GFP downregulation” and the “Effect on Nanog/GFP expression / ES cell differentiation induced by omission of LIF” value is “blocked or delayed ES cell differentiation”. The “Cell death as indicated by floating cells in culture” value in series [2] is “can cause cell death at too high concentrations”.
As for `CC1=C(/C=C/C(C)=C/C=C/C(C)=C/C(=O)O)C(C)(C)CCC1` [RA, retinoic acid], the “cells remaining Nanog/GFP+” value in series [3] (10 μM RA, ES medium without LIF, by day 3) is listed as “less than 5%”. The “GFP levels after RA pulse” value in series [3] (24-hour treatment with 1 μM RA in ES medium without LIF, then fresh ES medium, from more than 90%) stood at 45%. Besides, the “NeFREC(g)s in which the differentiated state is irreversibly fixed” value in series [3] (after 24-hour differentiation pulse, 1 μM RA) is recorded as “about 50%”. Further, the “RA dosage sufficient to induce rapid and significant downregulation of Nanog/GFP expression” value in series [3] (dosage response 0.2 to 10 μM RA) was 0.2 µM.
On to `CC(/C=C/C(=O)NO)=C\[C@@H](C)C(=O)c1ccc(N(C)C)cc1` [TSA, Trichostatin A], for which, in series [1], the “Effect on RA-induced Nanog/GFP downregulation” value was “delay RA-induced Nanog/GFP downregulation” and the “Effect on Nanog/GFP expression / ES cell differentiation induced by omission of LIF” value is listed as “blocked or delayed ES cell differentiation”. Further, the “Rescue of Nanog/GFP levels” value in series [4] (75 nM TSA, then 1.0 μM RA, by day 2) is recorded as “more than 50%”. Further, the “TSA concentrations at which RA-induced downregulation of Nanog/GFP is markedly reduced” value in series [4] (TSA 24 h, then ES medium without LIF plus 1.0 μM RA) is given as “higher than 75 nM”. For the same molecule, the “Concentration sufficient to kill all ES cells” value in series [2] (by day 3 of culture) stood at 300 nM. The “Cell death as indicated by floating cells in culture” value in series [2] (too high concentrations) is given as “can cause cell death at too high concentrations”.
Take `COc1cccc(-c2cc(=O)c3ccccc3o2)c1N` [PD98059]: in series [1], the “Effect on RA-induced Nanog/GFP downregulation” value is recorded as “delay RA-induced Nanog/GFP downregulation” and the “Effect on Nanog/GFP expression / ES cell differentiation induced by omission of LIF” value is listed as “blocked or delayed ES cell differentiation”. In addition, the “ES cell colony morphology” value in series [5] was “look more like NeFREC(g) cultured in ES medium alone”.

B1: RNA shRNA against Pou5f1: RNA shRNA against Pou5f1, SEQ ID NO:32 (nucleic acid)
chain: GCAGCUCAGCCUUAAGAACAUGUGUAAGCUUUGGAGCUUACACAUGUUCUUAAGGCUGAGCUGCAA
modifications: siRNA; RNA, backbone not given here; hairpin shRNA transfected as RNA
As to B1, the “Nanog/GFP expression (NeFREC(g) bearing Nanog/GFP)” value in series [6] (10 pmole RNA shRNA) was found to be 73.1%. Moreover, the Nanog/GFP levels in series [7] came out at 68.5%.

B2: RNA shRNA against GFP: RNA shRNA against GFP, SEQ ID NO:31 (nucleic acid)
chain: AGCCACAACGUCUAUAUCAUGGCCGACAAGUUGGCUUGUCGGCCAUGAUAUAGACGUUGUGGCUGU
modifications: siRNA; RNA, backbone not given here; hairpin shRNA transfected as RNA
As for B2, in series [6] (0 to 10 pmole RNA shRNA), the “Concentration dependence of reduction in Nanog/GFP fluorescence” value was “concentration-dependent”. In series [6] (10 pmole RNA shRNA, 72 hours post-transfection, from 85.8%), this molecule came in with a Nanog/GFP reporter expression of 18%. Further, the “Nanog/GFP expression (NeFREC(g) bearing Nanog/GFP)” value in series [6] (10 pmole RNA shRNA) came out at 21.2%. Besides, in series [7], the Nanog/GFP levels was determined as 14.1%.
